Test results as given in patent US10376520B2, “Methods for the treatment of cardiovascular disorders” (Galapagos NV, priority 2015, dated 2019).

System: RA patients
Experiment: Atherogenic index, Study 2 (RA patients, monotherapy)
Assay type: in vivo, human
Protocol: As used herein, the term ‘atherogenic index’ refers to
Double-blind, placebo-controlled, monotherapy study in subjects with moderately to severely active RA who have an inadequate response to methotrexate (MTX) (oral or parenteral).
Twelve weeks of treatment with Compound 1 (dosed as a [Compound 1:HCl:3H2O]) at 50 mg, 100 mg, or 200 mg q.d.; or placebo. At Week 12, all subjects on placebo and the subjects on the 50 mg dose who have not achieved 20% improvement in swollen joint count (SJC66) and tender joint count (TJC68) will be assigned to 100 mg q.d. in a blinded fashion and will continue treatment until Week 24. Subjects in the other groups will maintain their randomized treatment until Week 24.
The atherogenic index has been identified to be a good predictor of cardiovascular disorders risks and is calculated as follows: […]

[1] = Placebo switching to 100 mg q.d., week 16
[2] = Placebo switching to 100 mg q.d., week 20
[3] = Placebo switching to 100 mg q.d., week 24

For O=C(Nc1nc2cccc(-c3ccc(CN4CCS(=O)(=O)CC4)cc3)n2n1)C1CC1 [Compound 1, cyclopropanecarboxylic acid {5-[4-(1,1-dioxo-thiomorpholin-4-ylmethyl)-phenyl]-[1,2,4]triazolo[1,5-a]pyridin-2yl}-amide], the “Atherogenic index Median CFB - 12 weeks results” value (100 mg q.d., week 4) was -0.10 mmol/L, the “Atherogenic index Median CFB - 24 weeks results” value (100 mg q.d., week 4) was -0.10 mmol/L and the “Atherogenic index Median percentage CFB - 12 weeks results” value (100 mg q.d., week 4) was −3.65%. The “Atherogenic index Median percentage CFB - 24 weeks results” value (100 mg q.d., week 4) was −3.65%, the “Atherogenic index Mean CFB - 12 weeks results” value (“Atherogenic index Mean CFB” for short) (100 mg q.d., week 8) was -0.13 mmol/L and the “Atherogenic index Mean percentage CFB - 12 weeks results” value (100 mg q.d., week 8) was −3.37%. For the same compound, the “Atherogenic index Mean percentage CFB - 24 weeks results” value (100 mg q.d., week 8) was −3.37%, the “Atherogenic index Median CFB - 12 weeks results” value (100 mg q.d., week 8) was -0.10 mmol/L and the “Atherogenic index Median CFB - 24 weeks results” value (100 mg q.d., week 8) was -0.10 mmol/L. The “Atherogenic index Median percentage CFB - 24 weeks results” value (100 mg q.d., week 8) was −1.45%, the “Atherogenic index Mean CFB” value (100 mg q.d., week 12) was -0.07 mmol/L and the “Atherogenic index Mean percentage CFB - 24 weeks results” value (100 mg q.d., week 12) was −1.37%. The “Atherogenic index Median CFB - 12 weeks results” value (100 mg q.d., week 12) was -0.10 mmol/L, the “Atherogenic index Median CFB - 24 weeks results” value (100 mg q.d., week 12) was -0.10 mmol/L and the “Atherogenic index Median percentage CFB - 12 weeks results” value (100 mg q.d., week 12) was −2.78%. For the same compound, the “Atherogenic index Median percentage CFB - 24 weeks results” value (100 mg q.d., week 12) was −2.78%, the “Atherogenic index Mean percentage CFB - 24 weeks results” value (100 mg q.d., week 16) was −4.43% and the “Atherogenic index Median CFB - 24 weeks results” value (100 mg q.d., week 16) was -0.20 mmol/L. For the same compound, the “Atherogenic index Median percentage CFB - 24 weeks results” value (100 mg q.d., week 16) was −4.76%, the “Atherogenic index Mean percentage CFB - 24 weeks results” value (100 mg q.d., week 20) was −2.50% and the “Atherogenic index Median CFB - 24 weeks results” value (100 mg q.d., week 20) was 0.00 mmol/L. For the same compound, the “Atherogenic index Median percentage CFB - 24 weeks results” value (100 mg q.d., week 20) was 0.00%, the “Atherogenic index Mean percentage CFB - 24 weeks results” value (100 mg q.d., week 24) was −0.41% and the “Atherogenic index Median CFB - 24 weeks results” value (100 mg q.d., week 24) was 0.00 mmol/L. For the same compound, the “Atherogenic index Median percentage CFB - 24 weeks results” value (100 mg q.d., week 24) was 0.00%, the “Atherogenic index Mean CFB” value (200 mg q.d., week 1) was 0.15 mmol/L and the “Atherogenic index Mean percentage CFB - 12 weeks results” value (200 mg q.d., week 1) was 4.43%. For the same compound, the “Atherogenic index Mean percentage CFB - 24 weeks results” value (200 mg q.d., week 1) was 4.43%, the “Atherogenic index Median CFB - 12 weeks results” value (200 mg q.d., week 1) was 0.10 mmol/L and the “Atherogenic index Median CFB - 24 weeks results” value (200 mg q.d., week 1) was 0.10 mmol/L. The “Atherogenic index Median percentage CFB - 12 weeks results” value (200 mg q.d., week 1) was 1.96%, the “Atherogenic index Median percentage CFB - 24 weeks results” value (200 mg q.d., week 1) was 1.96% and the “Atherogenic index Mean CFB” value (200 mg q.d., week 2) was -0.09 mmol/L. For the same compound, the “Atherogenic index Mean percentage CFB - 12 weeks results” value (200 mg q.d., week 2) was −2.14%, the “Atherogenic index Mean percentage CFB - 24 weeks results” value (200 mg q.d., week 2) was −2.14% and the “Atherogenic index Median CFB - 12 weeks results” value (200 mg q.d., week 2) was 0.00 mmol/L. The “Atherogenic index Median CFB - 24 weeks results” value (200 mg q.d., week 2) was 0.00 mmol/L, the “Atherogenic index Median percentage CFB - 12 weeks results” value (200 mg q.d., week 2) was 0.00% and the “Atherogenic index Median percentage CFB - 24 weeks results” value (200 mg q.d., week 2) was 0.00%. For the same compound, the “Atherogenic index Mean CFB” value (200 mg q.d., week 4) was -0.18 mmol/L, the “Atherogenic index Mean percentage CFB - 12 weeks results” value (200 mg q.d., week 4) was −3.89% and the “Atherogenic index Mean percentage CFB - 24 weeks results” value (200 mg q.d., week 4) was −3.89%. The “Atherogenic index Median CFB - 12 weeks results” value (200 mg q.d., week 4) was -0.10 mmol/L, the “Atherogenic index Median CFB - 24 weeks results” value (200 mg q.d., week 4) was -0.10 mmol/L and the “Atherogenic index Median percentage CFB - 12 weeks results” value (200 mg q.d., week 4) was −3.65%. For the same compound, the “Atherogenic index Median percentage CFB - 24 weeks results” value (200 mg q.d., week 4) was −3.65%, the “Atherogenic index Mean CFB” value (200 mg q.d., week 8) was -0.16 mmol/L and the “Atherogenic index Mean percentage CFB - 12 weeks results” value (200 mg q.d., week 8) was −3.33%. The “Atherogenic index Mean percentage CFB - 24 weeks results” value (200 mg q.d., week 8) was −3.33%, the “Atherogenic index Median CFB - 12 weeks results” value (200 mg q.d., week 8) was -0.10 mmol/L and the “Atherogenic index Median CFB - 24 weeks results” value (200 mg q.d., week 8) was -0.10 mmol/L. The “Atherogenic index Median percentage CFB - 12 weeks results” value (200 mg q.d., week 8) was −3.33%, the “Atherogenic index Median percentage CFB - 24 weeks results” value (200 mg q.d., week 8) was −3.33% and the “Atherogenic index Mean CFB” value (200 mg q.d., week 12) was -0.04 mmol/L. For the same compound, the “Atherogenic index Mean percentage CFB - 12 weeks results” value (200 mg q.d., week 12) was 0.54%, the “Atherogenic index Mean percentage CFB - 24 weeks results” value (200 mg q.d., week 12) was 0.54% and the “Atherogenic index Median CFB - 12 weeks results” value (200 mg q.d., week 12) was 0.00 mmol/L. For the same compound, the “Atherogenic index Median CFB - 24 weeks results” value (200 mg q.d., week 12) was 0.00 mmol/L, the “Atherogenic index Median percentage CFB - 12 weeks results” value (200 mg q.d., week 12) was 0.00% and the “Atherogenic index Median percentage CFB - 24 weeks results” value (200 mg q.d., week 12) was 0.00%. For the same compound, the “Atherogenic index Mean percentage CFB - 24 weeks results” value (200 mg q.d., week 16) was 0.42%, the “Atherogenic index Median CFB - 24 weeks results” value (200 mg q.d., week 16) was 0.00 mmol/L and the “Atherogenic index Median percentage CFB - 24 weeks results” value (200 mg q.d., week 16) was 0.00%. The “Atherogenic index Mean percentage CFB - 24 weeks results” value (200 mg q.d., week 20) was −1.40%, the “Atherogenic index Median CFB - 24 weeks results” value (200 mg q.d., week 20) was -0.20 mmol/L and the “Atherogenic index Median percentage CFB - 24 weeks results” value (200 mg q.d., week 20) was −3.77%. The “Atherogenic index Mean percentage CFB - 24 weeks results” value (200 mg q.d., week 24) was 0.92%, the “Atherogenic index Median CFB - 24 weeks results” value (200 mg q.d., week 24) was -0.10 mmol/L and the “Atherogenic index Median percentage CFB - 24 weeks results” value (200 mg q.d., week 24) was −2.58%. The “Atherogenic index Mean percentage CFB - 24 weeks results” value [1] was −6.56%, the “Atherogenic index Median CFB - 24 weeks results” value [1] was -0.20 mmol/L and the “Atherogenic index Median percentage CFB - 24 weeks results” value [1] was −5.40%. The “Atherogenic index Mean percentage CFB - 24 weeks results” value [2] was −5.24%, the “Atherogenic index Median CFB - 24 weeks results” value [2] was -0.30 mmol/L and the “Atherogenic index Median percentage CFB - 24 weeks results” value [2] was −7.87%. For the same compound, the “Atherogenic index Mean percentage CFB - 24 weeks results” value [3] was −3.22%, the “Atherogenic index Median CFB - 24 weeks results” value [3] was -0.10 mmol/L and the “Atherogenic index Median percentage CFB - 24 weeks results” value [3] was −3.57%.
